Measured values from patent US6369083B1, “2-methoxyimino-2 (pyrinyloxymethyl) phenyl acetamides with polyether derivatives on the pyridine ring” (Dow AgroSciences LLC, priority 1998, dated 2002).

Legend:
Assay type in all cases: in vivo
Erysiphe graminis = test: Powdery Mildew of Wheat (ERYSGT); details: wheat (cultivar Monon), inoculated, sprayed at 25 ppm after 48 hours
Method: Compound Formulation: […] Final treatment volumes were obtained by adding nine volumes 0.05kOO aqueous Tween-20 or Triton X-100, depending upon the pathogen. Powdery Mildew of Wheat (Erysiphe graminis-[…]): Wheat (cultivar Monon) was grown in a soilless peat-based potting mixture (Metromix) until the seedlings were 1-2 leaf (BBCH 12). These plants were then inoculated with Erysiphe graminis by dusting spores from stock plants onto the test plants. After 48 hours the plants were sprayed to run off with the test compound at a rate of 25 ppm and then kept in the greenhouse until disease developed on the untreated control plants. The following table presents the activity of typical compounds of the present invention when evaluated in these experiments. The effectiveness of the test compounds in controlling disease was rated using the following scale: […]

Plasmopara viticola = test: Downy Mildew of Grape (PLASVI), 96 hour protectant; details: grape vines (cultivar Carignane), sprayed at 100 ppm, inoculated after 96 hours (protectant)
Method: Compound Formulation: […] Final treatment volumes were obtained by adding nine volumes 0.05kOO aqueous Tween-20 or Triton X-100, depending upon the pathogen. Downy Mildew of Grape (Plasmogara viticola-[…]) (96 Hour Protectant): Vines (cultivar Carignane) were grown from seed in a soilless peat-based potting mixture (Metromix) until the seedlings were 10-20 cm tall. These plants were then sprayed to run off with the test compound at a rate of 100 ppm. After 96 hours the test plants were inoculated by spraying with an aqueous sporangia suspension of Plasmopara viticola. The plants were then transferred to the greenhouse until disease developed on the untreated control plants. The following table presents the activity of typical compounds of the present invention when evaluated in these experiments. The effectiveness of the test compounds in controlling disease was rated using the following scale: […]

Leptosphaeria nodorum = test: Glume blotch of wheat (LEPTNO); details: wheat (cultivar Monon), sprayed at 100 ppm, inoculated after 24 hours
Method: Compound Formulation: […] Final treatment volumes were obtained by adding nine volumes 0.05kOO aqueous Tween-20 or Triton X-100, depending upon the pathogen. Glume blotch of wheat (Leptosphaeria nodorum-[…]): Wheat (cultivar Monon) was grown from seed in a soilless peat-based potting mixture (Metromix) until the seedlings were 1-2 leaf (BBCH 12). These plants were then sprayed to run off with the test compound at a rate of 100 ppm. After 24 hours the test plants were inoculated with an aqueous spore suspension of Leptosphaeria nodorum. The plants were then transferred to the greenhouse until disease developed on the untreated control plants. Brown rust (Puccinia recondita-PUCCRT): Wheat (cultivar Monon) was grown from seed in a soilless peat-based potting mixture (Metromix) until the seedlings were 1-2 leaf (BBCH 12). These plants were then sprayed to run off with the test compound at a rate of 100 ppm. After 24 hours the test plants were inoculated with an aqueous spore suspension of Puccinia recondita. The plants were then transferred to the greenhouse until disease developed on the untreated control plants. The following table presents the activity of typical compounds of the present invention when evaluated in these experiments. The effectiveness of the test compounds in controlling disease was rated using the following scale: […]

Septoria tritici = test: Septoria leaf spot (SEPTTR); details: wheat (cultivar Monon), sprayed at 100 ppm, inoculated after 24 hours
Method: Compound Formulation: […] Final treatment volumes were obtained by adding nine volumes 0.05kOO aqueous Tween-20 or Triton X-100, depending upon the pathogen. Septoria leaf spot (Septoria tritici-[…]): Wheat (cultivar Monon) was grown from seed in a soilless peat-based potting mixture (Metromix) until the seedlings were 1-2 leaf (BECH 12). These plants were then sprayed to run off with the test compound at a rate of 100 ppm. After 24 hours the test plants were inoculated with an aqueous spore suspension of Septoria tritici. The plants were then transferred to the greenhouse until disease developed on the untreated control plants. The following table presents the activity of typical compounds of the present invention when evaluated in these experiments. The effectiveness of the test compounds in controlling disease was rated using the following scale: […]

Compound: CNC(=O)C(=NOC)c1ccccc1COc1cccc(OC(COC)OC)n1 (centres unmarked) [Compound 22]
- ERYSGT control of plant disease (Erysiphe graminis): ++ (++ = 75-100 % control of plant disease)
- PLASVI control of plant disease (Plasmopara viticola): + (+ = 25-74% control of plant disease)
- LEPTNO control of plant disease (Leptosphaeria nodorum): + (+ = 25-74% control of plant disease)

Compound: CCCCCCOCCOc1cccc(OCc2ccccc2C(=NOC)C(=O)NC)n1 [Compound 70]
- SEPTTR control of plant disease (Septoria tritici): + (+ = 25-74% control of plant disease)
- PLASVI control of plant disease (Plasmopara viticola): + (+ = 25-74% control of plant disease)

Compound: CNC(=O)C(=NOC)c1ccccc1COc1cccc(OCCCCCOCc2ccccc2)n1 [Compound 66]
- SEPTTR control of plant disease (Septoria tritici): ++ (++ = 75-100 % control of plant disease)
- PLASVI control of plant disease (Plasmopara viticola): ++ (++ = 75-100 % control of plant disease)

Compound: CNC(=O)C(=NOC)c1ccccc1COc1cccc(OCCOC(C)C)n1 [Compound 53]
- ERYSGT control of plant disease (Erysiphe graminis): ++ (++ = 75-100 % control of plant disease)
- PLASVI control of plant disease (Plasmopara viticola): ++ (++ = 75-100 % control of plant disease)
- LEPTNO control of plant disease (Leptosphaeria nodorum): − (− = 0-24% control of plant disease)

Compound: CNC(=O)C(=NOC)c1ccccc1COc1cccc(SCCSC(C)(C)C)n1 [Compound 52]
- ERYSGT control of plant disease (Erysiphe graminis): ++ (++ = 75-100 % control of plant disease)
- PLASVI control of plant disease (Plasmopara viticola): ++ (++ = 75-100 % control of plant disease)
- LEPTNO control of plant disease (Leptosphaeria nodorum): + (+ = 25-74% control of plant disease)

Compound: CCOCCCCOc1cccc(OCc2ccccc2C(=NOC)C(=O)NC)n1 [Compound 65]
- SEPTTR control of plant disease (Septoria tritici): ++ (++ = 75-100 % control of plant disease)
- PLASVI control of plant disease (Plasmopara viticola): ++ (++ = 75-100 % control of plant disease)

Compound: CCCOCCOc1cccc(OCc2c(Cl)cccc2C(=NOC)C(=O)NC)n1 [Compound 60]
- SEPTTR control of plant disease (Septoria tritici): ++ (++ = 75-100 % control of plant disease)
- PLASVI control of plant disease (Plasmopara viticola): ++ (++ = 75-100 % control of plant disease)

Compound: CCOc1ccc(Sc2cccc(OCc3ccccc3C(=NOC)C(=O)NC)n2)cc1 [Compound 85]
- SEPTTR control of plant disease (Septoria tritici): − (− = 0-24% control of plant disease)

Compound: CNC(=O)C(=NOC)c1ccccc1COc1cccc(OCc2ccccc2OC)n1 [Compound 82]
- SEPTTR control of plant disease (Septoria tritici): ++ (++ = 75-100 % control of plant disease)

Compound: CNC(=O)C(=NOC)c1ccccc1COc1cccc(OCCCOC(C)C)n1 [Compound 54]
- ERYSGT control of plant disease (Erysiphe graminis): ++ (++ = 75-100 % control of plant disease)
- PLASVI control of plant disease (Plasmopara viticola): ++ (++ = 75-100 % control of plant disease)
- LEPTNO control of plant disease (Leptosphaeria nodorum): ++ (++ = 75-100 % control of plant disease)

Compound: CCCOCCCOc1cccc(OCc2ccccc2C(=NOC)C(=O)NC)n1 [Compound 89]
- ERYSGT control of plant disease (Erysiphe graminis): + (+ = 25-74% control of plant disease)
- PLASVI control of plant disease (Plasmopara viticola): − (− = 0-24% control of plant disease)
- LEPTNO control of plant disease (Leptosphaeria nodorum): − (− = 0-24% control of plant disease)

Compound: CCOCCOCCOc1nc(OCc2ccccc2C(=NOC)C(=O)NC)c(Cl)cc1Cl [Compound 16]
- ERYSGT control of plant disease (Erysiphe graminis): ++ (++ = 75-100 % control of plant disease)
- PLASVI control of plant disease (Plasmopara viticola): ++ (++ = 75-100 % control of plant disease)
- LEPTNO control of plant disease (Leptosphaeria nodorum): + (+ = 25-74% control of plant disease)

Compound: CCOCCOc1cccc(OCc2ccccc2C(=NOC)C(=O)NC)n1 [Compound 17]
- ERYSGT control of plant disease (Erysiphe graminis): + (+ = 25-74% control of plant disease)
- PLASVI control of plant disease (Plasmopara viticola): ++ (++ = 75-100 % control of plant disease)
- LEPTNO control of plant disease (Leptosphaeria nodorum): ++ (++ = 75-100 % control of plant disease)

Compound: CNC(=O)C(=NOC)c1ccccc1COc1cccc(OCCOC2CCC2)n1 [Compound 58]
- SEPTTR control of plant disease (Septoria tritici): ++ (++ = 75-100 % control of plant disease)
- PLASVI control of plant disease (Plasmopara viticola): ++ (++ = 75-100 % control of plant disease)

Compound: CCCCCOCCOc1cccc(OCc2ccccc2C(=NOC)C(=O)NC)n1 [Compound 61]
- SEPTTR control of plant disease (Septoria tritici): ++ (++ = 75-100 % control of plant disease)
- PLASVI control of plant disease (Plasmopara viticola): ++ (++ = 75-100 % control of plant disease)

Compound: CCOCCCOc1cccc(OCc2c(Cl)cccc2C(=NOC)C(=O)NC)n1 [Compound 78]
- SEPTTR control of plant disease (Septoria tritici): ++ (++ = 75-100 % control of plant disease)

Compound: CCCCC(CC)COCCOc1cccc(OCc2ccccc2C(=NOC)C(=O)NC)n1 (centres unmarked) [Compound 56]
- SEPTTR control of plant disease (Septoria tritici): ++ (++ = 75-100 % control of plant disease)
- PLASVI control of plant disease (Plasmopara viticola): ++ (++ = 75-100 % control of plant disease)

Compound: CCOc1cccc2nc(Sc3cccc(OCc4ccccc4C(=NOC)C(=O)NC)n3)sc12 [Compound 13]
- ERYSGT control of plant disease (Erysiphe graminis): − (− = 0-24% control of plant disease)
- PLASVI control of plant disease (Plasmopara viticola): + (+ = 25-74% control of plant disease)
- LEPTNO control of plant disease (Leptosphaeria nodorum): + (+ = 25-74% control of plant disease)

Compound: CCCCCOCCOc1cccc(OCc2c(F)cccc2C(=NOC)C(=O)NC)n1 [Compound 75]
- SEPTTR control of plant disease (Septoria tritici): ++ (++ = 75-100 % control of plant disease)

Compound: CNC(=O)C(=NOC)c1ccccc1COc1cccc(SCc2ccc(OC)cc2)n1 [Compound 57]
- SEPTTR control of plant disease (Septoria tritici): ++ (++ = 75-100 % control of plant disease)

Compound: CCOCCOc1nc(OCc2ccccc2C(=NOC)C(=O)NC)ccc1Cl [Compound 24, Benzeneacetamide, 2-[[[5-chloro-6-(2-ethoxyethoxy)-2-pyridinyl]oxy]methyl]-α-(methoxyimino)-N-methyl-]
- ERYSGT control of plant disease (Erysiphe graminis): ++ (++ = 75-100 % control of plant disease)
- PLASVI control of plant disease (Plasmopara viticola): ++ (++ = 75-100 % control of plant disease)
- LEPTNO control of plant disease (Leptosphaeria nodorum): + (+ = 25-74% control of plant disease)

Compound: CNC(=O)C(=NOC)c1cccc(F)c1COc1cccc(OCCCOC(C)C)n1 [Compound 79]
- SEPTTR control of plant disease (Septoria tritici): ++ (++ = 75-100 % control of plant disease)

Compound: CNC(=O)C(=NOC)c1ccccc1COc1cccc(OCCOC2CCCCC2)n1 [Compound 62]
- SEPTTR control of plant disease (Septoria tritici): + (+ = 25-74% control of plant disease)
- PLASVI control of plant disease (Plasmopara viticola): ++ (++ = 75-100 % control of plant disease)

Compound: CCOc1ccc(Oc2cccc(OCc3ccccc3C(=NOC)C(=O)NC)n2)cc1 [Compound 68]
- SEPTTR control of plant disease (Septoria tritici): + (+ = 25-74% control of plant disease)
- PLASVI control of plant disease (Plasmopara viticola): ++ (++ = 75-100 % control of plant disease)

Compound: C=CC(COC)Oc1cccc(OCc2ccccc2C(=NOC)C(=O)NC)n1 (centres unmarked) [Compound 72]
- SEPTTR control of plant disease (Septoria tritici): − (− = 0-24% control of plant disease)

Compound: CCOc1ccccc1Oc1cccc(OCc2ccccc2C(=NOC)C(=O)NC)n1 [Compound 64]
- SEPTTR control of plant disease (Septoria tritici): ++ (++ = 75-100 % control of plant disease)
- PLASVI control of plant disease (Plasmopara viticola): ++ (++ = 75-100 % control of plant disease)

Compound: CNC(=O)C(=NOC)c1ccccc1COc1cccc(OCCOC(CCC#N)OC)n1 (centres unmarked) [Compound 73]
- SEPTTR control of plant disease (Septoria tritici): − (− = 0-24% control of plant disease)

Compound: CNC(=O)C(=NOC)c1cccc(Cl)c1COc1cccc(OCCCOC(C)C)n1 [Compound 80]
- SEPTTR control of plant disease (Septoria tritici): ++ (++ = 75-100 % control of plant disease)

Compound: CCOCCCOc1cccc(OCc2c(F)cccc2C(=NOC)C(=O)NC)n1 [Compound 77]
- SEPTTR control of plant disease (Septoria tritici): ++ (++ = 75-100 % control of plant disease)

Compound: CCCOCCOCCOc1nc(OCc2ccccc2C(=NOC)C(=O)NC)c(Cl)cc1Cl [Compound 19]
- ERYSGT control of plant disease (Erysiphe graminis): + (+ = 25-74% control of plant disease)
- PLASVI control of plant disease (Plasmopara viticola): + (+ = 25-74% control of plant disease)
- LEPTNO control of plant disease (Leptosphaeria nodorum): ++ (++ = 75-100 % control of plant disease)

Compound: CNC(=O)C(=NOC)c1ccccc1COc1cccc(Oc2ccccc2OC)n1 [Compound 81]
- SEPTTR control of plant disease (Septoria tritici): + (+ = 25-74% control of plant disease)

Compound: CCOCCCOc1cccc(OCc2ccccc2C(=NOC)C(=O)NC)n1 [Compound 55]
- ERYSGT control of plant disease (Erysiphe graminis): + (+ = 25-74% control of plant disease)
- LEPTNO control of plant disease (Leptosphaeria nodorum): + (+ = 25-74% control of plant disease)

Compound: Benzeneacetamide, 2-[[[6-(2-(2-ethoxyethoxy)ethoxy) -2-pyridinyl]oxy]methyl]-α-(methoxyimino)-N-methyl- [Compound 21]
- PLASVI control of plant disease (Plasmopara viticola): ++ (++ = 75-100 % control of plant disease)
- LEPTNO control of plant disease (Leptosphaeria nodorum): + (+ = 25-74% control of plant disease)
